Experimental data reported in patent publication US20100256107A1, “PREPARATION COMPOSITION” (Dainippon Sumitomo Pharma Co., Ltd., priority 2007, published 2010).

Legend:
[1] = Control of coloration in an aqueous solution formulation containing sodium bicarbonate (absorbance 380 nm); type: physicochemical; conditions: for change in absorbance, just after dissolution / change in absorbance, preservation time 1 hr / change in absorbance, preservation time 2 hr / change in absorbance, preservation time 3 hr / change in absorbance, preservation time 4 hr / change in absorbance, preservation time 5 hr / change in absorbance, preservation time 6 hr: 25° C., 380 nm
Experimental: Multiple vials were prepared, and Compound A, imipenem and sodium bicarbonate in amounts indicated in Table 11 were weighed, respectively and each mixture was put in each vial. A physiological saline (100 ml) was added to each vial to be dissolved. In addition, to a vial containing Tienam® for infusion (0.5 g potency/vial) was added a physiological saline (100 ml). Coloration (change of color) just after dissolution and when the solution was preserved at one hour intervals for 6 hours at 25° C. were measured by absorbency.
• Conditions of measurement by spectrophotometer; • cell: quartz 12.5 mm×12.5 mm×45 mm, capacity 3.5 ml • wavelength: 380 nm • measurement temperature: 25° C. • instrument: UV-2200A (Shimadzu)
The numbers described in columns of “just after dissolution” and each “preservation time” on Table 12 show values of change in absorbance just after dissolution when measured under the above conditions.

[2] = Stability in an aqueous solution formulation containing sodium carbonate (HPLC); type: physicochemical
Experimental: Multiple vials were prepared, and Compound A and sodium carbonate in amounts indicated in Table 9 were weighed and put in each vial. A physiological saline (100 ml) was added to each vial, amounts Compound A and its degradation, Compounds B and C were measured just after dissolving and after preserving for 6 hours at 25° C.
HPLC was Measured Under the Same Conditions as Test Example 1.
The numbers described in columns of “just after dissolution” and “after preservation for 6 hours at 25° C.” on Table 10 show area % per total peaks which appear until 55 minutes under the above HPLC conditions.

[3] = 0.5 g/vial + sodium bicarbonate 0.0 mg/vial in physiological saline 100 ml
[4] = 0.5 g/vial + sodium bicarbonate 1.0 mg/vial in physiological saline 100 ml
[5] = 0.5 g/vial + sodium bicarbonate 2.5 mg/vial in physiological saline 100 ml
[6] = 0.5 g/vial + sodium bicarbonate 5.0 mg/vial in physiological saline 100 ml
[7] = 0.5 g/vial + sodium bicarbonate 10 mg/vial in physiological saline 100 ml
[8] = 0.5 g/vial + sodium bicarbonate 20 mg/vial in physiological saline 100 ml
[9] = 0.5 g/vial + sodium bicarbonate 50 mg/vial in physiological saline 100 ml
[10] = Comp. A 0.5 g/vial + sodium carbonate 0.0 mg/vial in physiological saline 100 ml
[11] = Comp. A 0.5 g/vial + sodium carbonate 1.0 mg/vial in physiological saline 100 ml
[12] = Comp. A 0.5 g/vial + sodium carbonate 1.5 mg/vial in physiological saline 100 ml
[13] = Comp. A 0.5 g/vial + sodium carbonate 2.0 mg/vial in physiological saline 100 ml
[14] = Comp. A 0.5 g/vial + sodium carbonate 2.5 mg/vial in physiological saline 100 ml
[15] = Comp. A 0.5 g/vial + sodium carbonate 3.0 mg/vial in physiological saline 100 ml
[16] = Comp. A 0.5 g/vial + sodium carbonate 3.5 mg/vial in physiological saline 100 ml
[17] = Comp. A 0.5 g/vial + sodium carbonate 4.0 mg/vial in physiological saline 100 ml
[18] = Comp. A 0.5 g/vial + sodium carbonate 5.0 mg/vial in physiological saline 100 ml

- change in absorbance, just after dissolution [1, 3]: 0.00 Abs
- change in absorbance, preservation time 1 hr [1, 3]: 0.01 Abs
- change in absorbance, preservation time 2 hr [1, 3]: 0.03 Abs
- change in absorbance, preservation time 3 hr [1, 3]: 0.05 Abs
- change in absorbance, preservation time 4 hr [1, 3]: 0.07 Abs
- change in absorbance, preservation time 5 hr [1, 3]: 0.11 Abs
- change in absorbance, preservation time 6 hr [1, 3]: 0.13 Abs
- change in absorbance, just after dissolution [1, 4]: 0.00 Abs
- change in absorbance, preservation time 1 hr [1, 4]: 0.00 Abs
- change in absorbance, preservation time 2 hr [1, 4]: 0.01 Abs
- change in absorbance, preservation time 3 hr [1, 4]: 0.02 Abs
- change in absorbance, preservation time 4 hr [1, 4]: 0.04 Abs
- change in absorbance, preservation time 5 hr [1, 4]: 0.06 Abs
- change in absorbance, preservation time 6 hr [1, 4]: 0.08 Abs
- change in absorbance, just after dissolution [1, 5]: 0.00 Abs
- change in absorbance, preservation time 1 hr [1, 5]: 0.00 Abs
- change in absorbance, preservation time 2 hr [1, 5]: 0.00 Abs
- change in absorbance, preservation time 3 hr [1, 5]: 0.00 Abs
- change in absorbance, preservation time 4 hr [1, 5]: 0.00 Abs
- change in absorbance, preservation time 5 hr [1, 5]: 0.01 Abs
- change in absorbance, preservation time 6 hr [1, 5]: 0.01 Abs
- change in absorbance, just after dissolution [1, 6]: 0.00 Abs
- change in absorbance, preservation time 1 hr [1, 6]: 0.00 Abs
- change in absorbance, preservation time 2 hr [1, 6]: 0.00 Abs
- change in absorbance, preservation time 3 hr [1, 6]: 0.00 Abs
- change in absorbance, preservation time 4 hr [1, 6]: 0.00 Abs
- change in absorbance, preservation time 5 hr [1, 6]: 0.00 Abs
- change in absorbance, preservation time 6 hr [1, 6]: 0.00 Abs
- change in absorbance, just after dissolution [1, 7]: 0.00 Abs
- change in absorbance, preservation time 1 hr [1, 7]: 0.00 Abs
- change in absorbance, preservation time 2 hr [1, 7]: 0.00 Abs
- change in absorbance, preservation time 3 hr [1, 7]: 0.00 Abs
- change in absorbance, preservation time 4 hr [1, 7]: 0.00 Abs
- change in absorbance, preservation time 5 hr [1, 7]: 0.00 Abs
- change in absorbance, preservation time 6 hr [1, 7]: 0.00 Abs
- change in absorbance, just after dissolution [1, 8]: 0.00 Abs
- change in absorbance, preservation time 1 hr [1, 8]: 0.00 Abs
- change in absorbance, preservation time 2 hr [1, 8]: 0.00 Abs
- change in absorbance, preservation time 3 hr [1, 8]: 0.00 Abs
- change in absorbance, preservation time 4 hr [1, 8]: 0.00 Abs
- change in absorbance, preservation time 5 hr [1, 8]: 0.00 Abs
- change in absorbance, preservation time 6 hr [1, 8]: 0.00 Abs
- change in absorbance, just after dissolution [1, 9]: 0.00 Abs
- change in absorbance, preservation time 1 hr [1, 9]: 0.00 Abs
- change in absorbance, preservation time 2 hr [1, 9]: 0.00 Abs
- change in absorbance, preservation time 3 hr [1, 9]: 0.00 Abs
- change in absorbance, preservation time 4 hr [1, 9]: 0.00 Abs
- change in absorbance, preservation time 5 hr [1, 9]: 0.00 Abs
- change in absorbance, preservation time 6 hr [1, 9]: 0.00 Abs
- suppression of coloration of the solution ([1]; at least 2.5 mg (0.005 part by weight) of sodium bicarbonate per 500 mg): observed
- Comp. A after preservation for 6 hrs. 25° C. [2, 10]: 96.3 area %
- Comp. A just after dissolution [2, 10]: 99.0 area %
- Comp. B after preservation for 6 hrs. 25° C. [2, 10]: 2.6 area %
- Comp. B just after dissolution [2, 10]: 0.5 area %
- Comp. C after preservation for 6 hrs. 25° C. [2, 10]: 0.4 area %
- Comp. C just after dissolution [2, 10]: 0.0 area %
- Comp. A after preservation for 6 hrs. 25° C. [2, 11]: 96.7 area %
- Comp. A just after dissolution [2, 11]: 99.0 area %
- Comp. B after preservation for 6 hrs. 25° C. [2, 11]: 2.6 area %
- Comp. B just after dissolution [2, 11]: 0.6 area %
- Comp. C after preservation for 6 hrs. 25° C. [2, 11]: 0.2 area %
- Comp. C just after dissolution [2, 11]: 0.0 area %
- Comp. A after preservation for 6 hrs. 25° C. [2, 12]: 96.5 area %
- Comp. A just after dissolution [2, 12]: 98.9 area %
- Comp. B after preservation for 6 hrs. 25° C. [2, 12]: 2.8 area %
- Comp. B just after dissolution [2, 12]: 0.5 area %
- Comp. C after preservation for 6 hrs. 25° C. [2, 12]: ≤ 0.1 area %
- Comp. C just after dissolution [2, 12]: 0.0 area %
- Comp. C after preservation for 6 hrs. 25° C. ([2]; Comp. A 0.5 g/vial + sodium carbonate 1.5 mg/vial in physiological saline 100 ml, listed as Comp. A): 0.0 area %
- Comp. A after preservation for 6 hrs. 25° C. [2, 13]: 96.2 area %
- Comp. A just after dissolution [2, 13]: 99.0 area %
- Comp. B after preservation for 6 hrs. 25° C. [2, 13]: 3.0 area %
- Comp. B just after dissolution [2, 13]: 0.5 area %
- Comp. C after preservation for 6 hrs. 25° C. [2, 13]: 0.0 area %
- Comp. C just after dissolution [2, 13]: 0.0 area %
- Comp. A after preservation for 6 hrs. 25° C. [2, 14]: 96.0 area %
- Comp. A just after dissolution [2, 14]: 98.9 area %
- Comp. B after preservation for 6 hrs. 25° C. [2, 14]: 3.2 area %
- Comp. B just after dissolution [2, 14]: 0.5 area %
- Comp. C after preservation for 6 hrs. 25° C. [2, 14]: 0.0 area %
- Comp. C just after dissolution [2, 14]: 0.0 area %
- Comp. A after preservation for 6 hrs. 25° C. [2, 15]: 95.7 area %
- Comp. A just after dissolution [2, 15]: 99.0 area %
- Comp. B after preservation for 6 hrs. 25° C. [2, 15]: 3.6 area %
- Comp. B just after dissolution [2, 15]: 0.5 area %
- Comp. C after preservation for 6 hrs. 25° C. [2, 15]: 0.0 area %
- Comp. C just after dissolution [2, 15]: 0.0 area %
- Comp. A after preservation for 6 hrs. 25° C. [2, 16]: 95.4 area %
- Comp. A just after dissolution [2, 16]: 98.9 area %
- Comp. B after preservation for 6 hrs. 25° C. [2, 16]: 3.8 area %
- Comp. B just after dissolution [2, 16]: 0.5 area %
- Comp. C after preservation for 6 hrs. 25° C. [2, 16]: 0.0 area %
- Comp. C just after dissolution [2, 16]: 0.0 area %
- Comp. A after preservation for 6 hrs. 25° C. [2, 17]: 95.1 area %
- Comp. A just after dissolution [2, 17]: 99.0 area %
- Comp. B after preservation for 6 hrs. 25° C. [2, 17]: 4.1 area %
- Comp. B just after dissolution [2, 17]: 0.5 area %
- Comp. C after preservation for 6 hrs. 25° C. [2, 17]: 0.0 area %
- Comp. C just after dissolution [2, 17]: 0.0 area %
- Comp. A after preservation for 6 hrs. 25° C. [2, 18]: 94.8 area %
- Comp. A just after dissolution [2, 18]: 98.9 area %
- Comp. B after preservation for 6 hrs. 25° C. [2, 18]: 4.5 area %
- Comp. B just after dissolution [2, 18]: 0.6 area %
- Comp. C after preservation for 6 hrs. 25° C. [2, 18]: 0.0 area %
- Comp. C just after dissolution [2, 18]: 0.0 area %
- reduction of amount of Compound A ([2]; sodium carbonate increased to 5 mg from 2 mg per Compound A 500 mg, 6 hours at 25° C.): 1.4%
SMILES: C[C@H]1C=C(c2csc(SC3=C(C(=O)O)N4C(=O)[C@H]([C@@H](C)O)[C@H]4[C@H]3C)n2)CN1 [Compound A, (4R,5S,6S)-6-[(1R)-1-hydroxyethyl]-4-methyl-3-({4-[(5S)-5-methyl-2,5-dihydro-1H-pyrrol-3-yl]-1,3-thiazol-2-yl}sulfanyl)-7-oxo-1-azabicyclo[3.2.0]hept-2-ene-2-carboxylic acid]
- coloration by the visual inspection compared with a solution just after dissolution ([1]; sodium bicarbonate 2.5 mg per 500 mg, physiological saline, 6 hours at 25° C.): coloration was not observed by the visual inspection
